Test results as given in ChEMBL document CHEMBL5325414, “Novel neuroprotective pyromeconic acid derivatives with concurrent anti-Aβ deposition, anti-inflammatory, and anti-oxidation properties for treatment of Alzheimer's disease” (Eur J Med Chem, 2023).
Active and inactive are the calls of the source. The calls are words filed in the database; no cut-off is given here.

Key:
[1] = target: T1, Amyloid-beta precursor protein (Homo sapiens, UniProt P05067); assay: Inhibition of Cu2+ induced of amyloid beta (1 to 42) aggregation (unknown origin)
T1 sequence (P05067 whole entry): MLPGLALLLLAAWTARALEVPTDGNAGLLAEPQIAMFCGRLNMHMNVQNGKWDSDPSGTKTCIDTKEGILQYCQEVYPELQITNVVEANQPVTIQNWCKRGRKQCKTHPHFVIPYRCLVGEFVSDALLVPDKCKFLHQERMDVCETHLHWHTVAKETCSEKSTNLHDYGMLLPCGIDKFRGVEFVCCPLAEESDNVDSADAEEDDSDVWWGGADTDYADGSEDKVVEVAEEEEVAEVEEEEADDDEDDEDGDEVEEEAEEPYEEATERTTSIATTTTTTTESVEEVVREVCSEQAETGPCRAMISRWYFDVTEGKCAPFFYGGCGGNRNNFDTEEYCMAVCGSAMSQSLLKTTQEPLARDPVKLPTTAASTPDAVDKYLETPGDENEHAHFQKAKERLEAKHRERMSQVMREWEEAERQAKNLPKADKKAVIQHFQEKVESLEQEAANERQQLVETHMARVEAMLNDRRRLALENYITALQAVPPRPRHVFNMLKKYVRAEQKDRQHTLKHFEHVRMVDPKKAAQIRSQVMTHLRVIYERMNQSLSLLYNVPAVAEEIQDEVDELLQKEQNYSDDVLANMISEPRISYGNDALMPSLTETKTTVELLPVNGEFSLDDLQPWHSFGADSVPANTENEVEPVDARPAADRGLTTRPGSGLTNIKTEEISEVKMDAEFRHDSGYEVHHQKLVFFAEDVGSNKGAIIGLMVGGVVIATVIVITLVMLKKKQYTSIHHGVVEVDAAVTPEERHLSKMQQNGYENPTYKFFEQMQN

Mus musculus [2] = assay: Anti alzheimer activity in scopolamine induced anxiety in ICR mouse assessed as increase in discrimination ratio pretreated with scopolamine at 3 mg/kg, ip for 31 days followed by compound addition at 20 mg/kg, po at day 7 to 31 by novel object recognition test; format: functional, organism-based; conditions: time 25.0 day
Mus musculus [3] = assay: Anti alzheimer activity in scopolamine induced anxiety in ICR mouse assessed as improved memory function pretreated with scopolamine at 3 mg/kg, ip for 31 days followed by compound addition at 20 mg/kg, po at day 7 to 31 by morris water maze test; format: functional, organism-based; conditions: time 25.0 day
BV-2 [4] = assay: Neuroprotective activity against amyloid beta (1 to 42) induced neurotoxicity in mouse BV-2 cells assessed as survival of cells treated for 24 hrs; format: functional, cell-based; conditions: dose 2.5-10 µM
[5] = Ratio of drug concentration in hippocampus to plasma of Sprague-Dawley rat at 15 mg/kg, IG measured after 0.25 hrs; format: ADME, organism-based; conditions: po
[6] = Acute toxicity in mouse assessed as histopathological change in heart at 2000 mg/kg, IG administered as single dose measured after 14 days measured by H and E staining analysis; format: organism-based; conditions: in vivo, po, 336 h, time 14 day
[7] = Drug concentration in plasma of Sprague-Dawley rat at 15 mg/kg, IG measured after 0.167 hrs; format: ADME, organism-based; conditions: po
[8] = Metal chelating activity assessed as compound-Mn2+ complex formation by optical shift at 50 uM in PBS buffer 7.4 by UV-vis spectrometric analysis
BV-2 [9] = assay: Effect of amyloid beta (1 to 42) indued apoptosis in mouse BV-2 cells assessed as late apoptotic cells at 5 uM measured by propidium iodide staining based flow cytometric analysis (reference value: 6.88%); format: functional
Mus musculus [10] = assay: In vivo antiinflammatory activity in scopolamine induced cognitive impaired ICR mouse assessed as decrease in IL-6 levels in cortex; format: functional, organism-based
[11] = Drug concentration in hippocampus of Sprague-Dawley rat at 15 mg/kg, IG measured after 0.5 hrs; format: ADME, organism-based; conditions: po, read-out: Drug uptake
BV-2 [12] = assay: Effect of amyloid beta (1 to 42) indued apoptosis in mouse BV-2 cells assessed as viable cells at 5 uM measured by propidium iodide staining based flow cytometric analysis (reference value: 61.29%); format: functional; conditions: read-out: Activity
[13] = Acute toxicity in mouse assessed as histopathological change in brain at 2000 mg/kg, IG administered as single dose measured after 14 days measured by H and E staining analysis; format: organism-based; conditions: in vivo, po, 336 h, time 14 day
[14] = Drug concentration in plasma of Sprague-Dawley rat at 15 mg/kg, IG measured after 1 hrs; format: ADME, organism-based; conditions: po
[15] = target: T1, Amyloid-beta precursor protein; assay: Inhibition of Cu2+ induced amyloid beta (1 to 42) (unknown origin) aggregation assessed as depolymerization at 50 uM for 24 hrs by TEM analysis
[16] = Metal chelating activity assessed as compound-Na+ complex formation by optical shift at 50 uM in PBS buffer 7.4 by UV-vis spectrometric analysis
[17] = Ratio of drug concentration in hippocampus to plasma of Sprague-Dawley rat at 15 mg/kg, IG measured after 0.167 hrs; format: ADME, organism-based; conditions: po
Mus musculus [18] = assay: Antioxidant activity in scopolamine induced cognitive impaired mouse assessed as decrease of MDA level in cortex at 20 mg/kg; format: functional, organism-based
[19] = Drug concentration in plasma of Sprague-Dawley rat at 15 mg/kg, IG measured after 0.25 hrs; format: ADME, organism-based; conditions: po
[20] = MRT(0 to t) in Sprague-Dawley rat at 15 mg/kg, IG; format: ADME, organism-based; conditions: in vivo, po
Mus musculus [21] = assay: Anti alzheimer activity in scopolamine induced anxiety in ICR mouse assessed as improved exploratory activity pretreated with scopolamine at 3 mg/kg, ip for 31 days followed by compound addition at 20 mg/kg, po at day 7 to 31; format: functional, organism-based; conditions: time 25.0 day
[22] = target: T1, Amyloid-beta precursor protein; assay: Inhibition of amyloid beta (1 to 42) (unknown origin) self aggregation at 50 uM relative to control
BV-2 [23] = assay: Antioxidant activity in H2O2 treated mouse BV-2 cells assessed as reversal of HO-1 level at 5 to 20 uM by immunofluorescence analysis; format: functional, cell-based; conditions: dose 5-20 µM
[24] = Cmax in Sprague-Dawley rat at 15 mg/kg, IG; format: ADME, organism-based; design: dose 15 mg/kg, route ig; conditions: in vivo, po
BV-2 [25] = assay: Effect of amyloid beta (1 to 42) indued apoptosis in mouse BV-2 cells assessed as necrotic cells at 5 uM measured by propidium iodide staining based flow cytometric analysis (reference value: 5.72%); format: functional
[26] = Metal chelating activity assessed as compound-K+ complex formation by optical shift at 50 uM in PBS buffer 7.4 by UV-vis spectrometric analysis
[27] = Drug concentration in plasma of Sprague-Dawley rat at 15 mg/kg, IG measured after 0.5 hrs; format: ADME, organism-based; conditions: po
[28] = Metal chelating activity assessed as compound-Mg2+ complex formation by optical shift at 50 uM in PBS buffer 7.4 by UV-vis spectrometric analysis
Mus musculus [29] = assay: In vivo antiinflammatory activity in scopolamine induced cognitive impaired ICR mouse assessed as decrease in IL-1 levels in cortex; format: functional, organism-based
Mus musculus [30] = assay: Neuroprotective effect in scopolamine induced cognitively impaired mouse assessed as decrease in neuronal damage in CA1 region by measuring increase in neuronal nuclear antigen level at hippocampus at 20 mg/kg by immunoblot analysis; format: functional, organism-based
BV-2 [31] = assay: Effect of amyloid beta (1 to 42) indued apoptosis in mouse BV-2 cells assessed as viable cells at 2.5 uM measured by propidium iodide staining based flow cytometric analysis (reference value: 61.29%); format: functional; conditions: read-out: Activity
Mus musculus [32] = assay: Anti alzheimer activity in scopolamine induced anxiety in ICR mouse assessed as relieved anxiety pretreated with scopolamine at 3 mg/kg, ip for 31 days followed by compound addition at 20 mg/kg, po at day 7 to 31; format: functional, organism-based; conditions: time 25.0 day
[33] = Acute toxicity in mouse assessed as change in dietary activity at 2000 mg/kg, IG administered as single dose measured after 14 days; format: organism-based; conditions: in vivo, po, 336 h, time 14 day
Mus musculus [34] = assay: Neuroprotective effect in scopolamine induced cognitively impaired mouse assessed as […] of amyloid beta plaque deposition at 20 mg/kg by ELISA analysis; format: functional, organism-based
BV-2 [35] = assay: Neuroprotective activity against amyloid beta (1 to 42) induced neurotoxicity in mouse BV-2 cells assessed as survival of cells at 10 uM treated for 24 hrs relative to control; format: functional
[36] = Ratio of drug concentration in hippocampus to plasma of Sprague-Dawley rat at 15 mg/kg, IG measured after 2 hrs; format: ADME, organism-based; conditions: po
[37] = target: T1, Amyloid-beta precursor protein; assay: Inhibition of amyloid beta (1 to 42) (unknown origin) self aggregation assessed as disaggregation
[38] = Acute toxicity in mouse assessed as change in body weight at 2000 mg/kg, IG administered as single dose measured after 14 days; format: organism-based; conditions: in vivo, po, 336 h, time 14 day
[39] = target: Amyloid-beta precursor protein (Mus musculus) (UniProt P12023); assay: Inhibition of amyloid beta (1 to 42) in mouse BV-2 cells by measuring scavenging effect at 2.5 to 10 uM by ThT fluorescence based immunoblot analysis; format: cell-based; conditions: dose 2.5-10 µM
Amyloid-beta precursor protein (Mus musculus), sequence (P12023 whole entry): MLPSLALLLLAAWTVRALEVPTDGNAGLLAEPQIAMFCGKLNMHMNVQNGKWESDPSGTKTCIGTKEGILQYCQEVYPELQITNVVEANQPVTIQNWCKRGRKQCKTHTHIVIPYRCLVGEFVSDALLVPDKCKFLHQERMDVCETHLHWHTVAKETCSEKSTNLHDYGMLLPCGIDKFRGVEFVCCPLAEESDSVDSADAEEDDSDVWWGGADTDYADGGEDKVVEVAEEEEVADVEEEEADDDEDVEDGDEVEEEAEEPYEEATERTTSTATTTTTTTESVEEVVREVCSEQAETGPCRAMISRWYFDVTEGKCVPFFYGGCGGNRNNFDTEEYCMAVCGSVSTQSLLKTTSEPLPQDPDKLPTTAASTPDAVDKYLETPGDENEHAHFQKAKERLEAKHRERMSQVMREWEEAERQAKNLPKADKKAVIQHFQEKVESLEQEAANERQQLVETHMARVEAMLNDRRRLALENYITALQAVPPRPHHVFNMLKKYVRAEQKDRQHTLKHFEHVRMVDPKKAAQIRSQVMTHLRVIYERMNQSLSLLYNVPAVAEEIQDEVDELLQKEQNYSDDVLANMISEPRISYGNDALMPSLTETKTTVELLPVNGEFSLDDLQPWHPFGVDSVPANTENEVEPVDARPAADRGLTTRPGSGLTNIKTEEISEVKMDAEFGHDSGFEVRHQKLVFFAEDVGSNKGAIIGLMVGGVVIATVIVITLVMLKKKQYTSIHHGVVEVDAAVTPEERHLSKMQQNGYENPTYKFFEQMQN

O=c1ccoc(/C=C/c2ccc(O)c(O)c2)c1O
IC50 [1]: 3.69 µM
Activity (Mus musculus [2]): Active
Activity (Mus musculus [3]): Active
Activity (BV-2 [4]): Dose-Dependent Effect
Kp at 0.25 h [5]: 0.5
Activity [6]: Non-Toxic
concentration at 0.167 h [7]: 22.2 ng/mL
Activity [8]: inactive
Activity (BV-2 [9]): 13.4%
Activity (Mus musculus [10]): Active
concentration at 0.5 h [11]: 5.4 ng/mL
viability at 5 µM (BV-2 [12]): 77.4%
Activity [13]: Non-Toxic
concentration at 1 h [14]: 1.77 ng/mL
inhibition [15]: Active
Activity [16]: inactive
Kp at 0.167 h [17]: 0.07
Activity (Mus musculus [18]): Active
concentration at 0.25 h [19]: 5.32 ng/mL
MRT last [20]: 6.36 h
Activity (Mus musculus [21]): Active
inhibition [22]: 80.3%
Activity (BV-2 [23]): Active
Cmax [24]: 14.4 ng/mL
Activity (BV-2 [25]): 0.84%
Activity [26]: inactive
concentration at 0.5 h [27]: 2.68 ng/mL
Activity [28]: inactive
Activity (Mus musculus [29]): Active
Activity (Mus musculus [30]): Active
viability at 2.5 µM (BV-2 [31]): 76.2%
Activity (Mus musculus [32]): Active
Activity [33]: Non-Toxic
Activity (Mus musculus [34]): Active
Activity (BV-2 [35]): 75.5%
Kp at 2 h [36]: 7.12
IC50 [37]: 6.87 µM
Activity [38]: Non-Toxic
inhibition [39]: Active
